# Measured values: patent US11390613B2, “Azole analogues and methods of use thereof” (UNIVERSITY OF CONNECTICUT, priority 2017, dated 2022)
# Where two headings read alike, the source gives them in different places.
# Legend:
# [1] = test system: primary murine Hh-dependent MB cell line (MERP); experiment: Antiproliferation in primary Hh-dependent MB cells (MERP); assay type: cell-based; settings: Mus musculus
# Procedure: Secondary In Vitro Evaluation. Based on their activity in ASZ cells, several compounds were evaluated further in a primary murine Hh-dependent MB cell line (MERP).
# (§1) General Information for Cell Culture Studies Protocols for general cell culture, qPCR, and Hh inhibition ASZ cells are as previously described.
# (§2) General Information for Cell Culture Studies. Protocols for general cell culture, qPCR, and Hh inhibition ASZ cells are as previously described.
# [2] = Metabolic half-life and clearance (HLM); assay type: in vitro ADME
# [3] = Parallel artificial membrane permeability assay (PAMPA); assay type: in vitro ADME; settings: passive permeability
# Excerpt: (§3) Preliminary In Vitro Pharmacokinetic Assays.
# BCRP = target: T1, BCRP (Homo sapiens, UniProt Q9UNQ0); experiment: BCRP efflux; assay type: in vitro ADME; settings: Table 9
# T1 sequence (Q9UNQ0 1-655): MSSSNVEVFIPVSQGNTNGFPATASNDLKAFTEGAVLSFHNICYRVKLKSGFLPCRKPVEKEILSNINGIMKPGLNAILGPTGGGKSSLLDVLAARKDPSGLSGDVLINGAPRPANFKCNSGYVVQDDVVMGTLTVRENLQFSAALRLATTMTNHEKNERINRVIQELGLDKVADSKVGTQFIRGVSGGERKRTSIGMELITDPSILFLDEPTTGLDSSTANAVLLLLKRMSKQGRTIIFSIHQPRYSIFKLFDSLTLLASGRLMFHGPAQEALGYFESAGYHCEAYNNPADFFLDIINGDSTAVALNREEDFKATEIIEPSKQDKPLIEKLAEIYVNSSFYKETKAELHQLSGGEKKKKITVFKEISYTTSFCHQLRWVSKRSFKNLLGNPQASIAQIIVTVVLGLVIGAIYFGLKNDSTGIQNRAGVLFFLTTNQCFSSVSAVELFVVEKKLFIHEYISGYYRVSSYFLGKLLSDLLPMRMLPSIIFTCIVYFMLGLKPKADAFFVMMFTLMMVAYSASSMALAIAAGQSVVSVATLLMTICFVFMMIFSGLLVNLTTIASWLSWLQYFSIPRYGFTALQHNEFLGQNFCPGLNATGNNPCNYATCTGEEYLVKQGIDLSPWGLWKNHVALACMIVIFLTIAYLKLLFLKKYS
# Excerpt: as §3
# P-glycoprotein (P-gp) = P-glycoprotein (P-gp) (Homo sapiens, UniProt P08183); experiment: P-glycoprotein (P-gp) efflux; assay type: in vitro ADME
# Sequence of P-glycoprotein (P-gp) (P08183 whole entry): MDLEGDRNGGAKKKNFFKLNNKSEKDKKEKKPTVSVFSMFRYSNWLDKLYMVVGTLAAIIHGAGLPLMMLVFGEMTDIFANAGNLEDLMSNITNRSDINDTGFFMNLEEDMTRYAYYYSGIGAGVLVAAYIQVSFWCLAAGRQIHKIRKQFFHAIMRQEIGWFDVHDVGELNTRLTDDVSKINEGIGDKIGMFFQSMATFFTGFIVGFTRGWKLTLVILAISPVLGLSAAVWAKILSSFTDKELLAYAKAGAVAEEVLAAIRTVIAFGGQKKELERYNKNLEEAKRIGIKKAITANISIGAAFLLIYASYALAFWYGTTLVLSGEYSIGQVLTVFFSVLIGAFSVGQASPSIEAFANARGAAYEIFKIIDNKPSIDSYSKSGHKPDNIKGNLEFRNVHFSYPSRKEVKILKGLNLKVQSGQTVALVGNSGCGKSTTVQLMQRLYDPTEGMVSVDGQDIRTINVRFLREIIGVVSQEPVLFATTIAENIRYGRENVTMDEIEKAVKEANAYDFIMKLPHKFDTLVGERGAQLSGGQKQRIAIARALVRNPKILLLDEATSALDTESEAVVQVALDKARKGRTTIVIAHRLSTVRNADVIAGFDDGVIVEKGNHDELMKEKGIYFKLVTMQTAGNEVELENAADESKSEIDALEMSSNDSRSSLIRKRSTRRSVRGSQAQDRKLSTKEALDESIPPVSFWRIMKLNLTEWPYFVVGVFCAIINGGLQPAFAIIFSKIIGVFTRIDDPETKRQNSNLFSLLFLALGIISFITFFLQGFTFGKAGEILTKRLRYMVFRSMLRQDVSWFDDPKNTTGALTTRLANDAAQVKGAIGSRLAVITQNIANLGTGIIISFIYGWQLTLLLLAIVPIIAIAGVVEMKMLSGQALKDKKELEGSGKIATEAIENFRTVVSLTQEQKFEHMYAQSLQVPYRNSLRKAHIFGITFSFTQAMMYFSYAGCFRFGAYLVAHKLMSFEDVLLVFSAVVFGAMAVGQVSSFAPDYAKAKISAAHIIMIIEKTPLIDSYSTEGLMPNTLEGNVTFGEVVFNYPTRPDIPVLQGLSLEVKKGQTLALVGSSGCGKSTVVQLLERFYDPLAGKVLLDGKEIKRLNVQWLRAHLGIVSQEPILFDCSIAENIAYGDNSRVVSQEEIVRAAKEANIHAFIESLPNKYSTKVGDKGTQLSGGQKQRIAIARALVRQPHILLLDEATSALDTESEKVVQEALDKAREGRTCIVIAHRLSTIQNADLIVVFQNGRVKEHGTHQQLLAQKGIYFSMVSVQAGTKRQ
# Excerpt: as §3
# CYP3A4 = CYP3A4 (Homo sapiens, UniProt P08684); experiment: CYP3A4 inhibition
# Sequence of CYP3A4 (P08684 whole entry): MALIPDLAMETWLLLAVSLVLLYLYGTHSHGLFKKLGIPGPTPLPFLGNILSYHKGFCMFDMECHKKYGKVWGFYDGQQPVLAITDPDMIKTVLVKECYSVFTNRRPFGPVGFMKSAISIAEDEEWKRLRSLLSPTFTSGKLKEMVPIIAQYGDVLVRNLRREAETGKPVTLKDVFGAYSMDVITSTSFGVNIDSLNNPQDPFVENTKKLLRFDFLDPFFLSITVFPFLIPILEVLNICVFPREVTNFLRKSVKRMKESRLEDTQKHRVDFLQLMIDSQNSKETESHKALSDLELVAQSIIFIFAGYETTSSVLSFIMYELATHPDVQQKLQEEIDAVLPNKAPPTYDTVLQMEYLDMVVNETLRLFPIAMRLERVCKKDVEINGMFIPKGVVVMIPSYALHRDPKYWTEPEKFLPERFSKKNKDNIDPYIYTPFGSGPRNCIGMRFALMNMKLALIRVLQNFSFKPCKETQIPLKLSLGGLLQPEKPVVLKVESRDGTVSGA
# Procedure: Additionally, CYP3A4 inhibition and P-glycoprotein (P-gp) efflux of each compound were evaluated.
# [4] = test system: Gli1 mRNA levels in the murine BCC cell line ASZ-001 (Hh pathway); experiment: Hh pathway inhibition: endogenous Gli1 mRNA (qRT-PCR) in ASZ-001 cells; assay type: cell-based
# Procedure: Initial Hh inhibition studies.
# as §1, §2
# Gene Expression Assay Protocol (ASZ-001): Cells are seeded (10,000 cells per well; 100 μL total volume per well) in a 96-well tissue culture plate. After 24 h of incubation (37° C., 5% CO2), growth media was removed and replaced with low FBS media. Cells were incubated for an additional 24 h. After this time, DMSO (vehicle control) and liposomes (Aqueous Solution) were added to the wells. […]
# Rt-PCR Protocol: Following treatment and incubation periods, both RNA extraction and cDNA synthesis were performed using a TaqMan Cells-to-CT (fast) kit. cDNA synthesis utilized a BioRad MyCycler and was programmed according to the manufacturer's instructions. Quantitative RT-PCR was performed on an ABI 7500 system and made use of the following TaqMan Gene Expression Probes: mouse ActB (Mm00607939_s1) and mouse Gli1 (Mm00494654_m1). Relative gene expression levels were computed via ΔΔCT method using GraphPad Prism. Corresponding IC50 values were calculated as mean±SEM for at least three separate experiments performed in triplicate.
# [5] = Table 6, ASZ cells, Gli1 mRNA, 48 h incubation, read-out: IC50
smiles,measurement,setting,value
"C[C@]1(c2ccc(Cl)cc2Cl)OC[C@@H](COc2ccc(N3CCN(c4ccc(NC(=O)c5cccnc5)cc4)CC3)cc2)O1 [Compound 18, N-(4-(4-(4-(((2S,4R)-2-(2,4-dichlorophenyl)-2-methyl-1,3-dioxolan-4-yl)methoxy)phenyl)piperazin-1-yl)phenyl)nicotinamide]",IC50,[1]; Table 6,1100 ± 600 nM
same,"T1/2 (HLM, min)",[2],significantly different half-lives
same,PAMPA,[3],Poor
same,BCRP,BCRP,No
same,P-gp,P-glycoprotein (P-gp); Table 9,No
same,Solubility,Solubility,6.9 nM
"C[C@]1(c2ccc(Cl)cc2Cl)OC[C@@H](COc2ccc(N3CCN(c4ccc(NC(=O)NN)cc4)CC3)cc2)O1 [Compound 40, N-(4-(4-(4-(((2S,4R)-2-(2,4-dichlorophenyl)-2-methyl-1,3-dioxolan-4-yl)methoxy)phenyl)piperazin-1-yl)phenyl)hydrazinecarboxamide]",IC50,[1]; Table 8,2800 ± 900 nM
same,"T1/2 (HLM, min)",[2],11.5 ± 0.1 min
same,Solubility,Solubility,1.4 nM
same,IC50,CYP3A4,> 30 µM
"C[C@@]1(c2ccc(Cl)cc2Cl)OC[C@@H](COc2ccc(N3CCN(c4ccc(NC(=O)c5cccc(O)c5)cc4)CC3)cc2)O1 [Compound 27, N-(4-(4-(4-(((2R,4R)-2-(2,4-dichlorophenyl)-2-methyl-1,3-dioxolan-4-yl)methoxy)phenyl)piperazin-1-yl)phenyl)-3-hydroxybenzamide]",IC50,[1]; Table 6,2800 ± 1500 nM
same,"T1/2 (HLM, min)",[2],>231 min
same,Solubility,Solubility,1.4 nM
"CC(=O)c1cccc(C(=O)Nc2ccc(N3CCN(c4ccc(OC[C@@H]5CO[C@](C)(c6ccc(Cl)cc6Cl)O5)cc4)CC3)cc2)c1 [Compound 34, 3-acetyl-N-(4-(4-(4-(((2S,4R)-2-(2,4-dichlorophenyl)-2-methyl-1,3-dioxolan-4-yl)methoxy)phenyl)piperazin-1-yl)phenyl)benzamide]",GI50,[1]; Table 7,1000 ± 300 nM
same,"T1/2 (HLM, min)",[2],11.4 ± 0.06 min
same,Solubility,Solubility,1.4 nM
same,IC50,CYP3A4,> 30 µM
"C[C@@]1(c2ccc(Cl)cc2Cl)OC[C@@H](COc2ccc(N3CCN(c4ccc(NC(=O)c5cccnc5)cc4)CC3)cc2)O1 [Compound 13, N-(4-(4-(4-(((2R,4R)-2-(2,4-dichlorophenyl)-2-methyl-1,3-dioxolan-4-yl)methoxy)phenyl)piperazin-1-yl)phenyl)nicotinamide]",IC50,[1]; Table 6,> 10000 nM
same,"T1/2 (HLM, min)",[2],significantly different half-lives
same,PAMPA,[3],Poor
same,Solubility,Solubility,4.2 nM
"C[C@@]1(c2ccc(Cl)cc2Cl)OC[C@@H](COc2ccc(N3CCN(c4ccc([N+](=O)[O-])cc4)CC3)cc2)O1 [Compound 6, 1-(4-(((2R,4R)-2-(2,4-dichlorophenyl)-2-methyl-1,3-dioxolan-4-yl)methoxy)phenyl)-4-(4-nitrophenyl)piperazine]",IC50,"[4]; Mus musculus, ASZ001, 48 h",310 ± 40 nM
"C[C@@]1(c2ccc(Cl)cc2Cl)OC[C@@H](COc2ccc(N3CCN(c4ccc(NC(=O)c5ccccc5)cc4)CC3)cc2)O1 [Compound 10, N-(4-(4-(4-(((2R,4R)-2-(2,4-dichlorophenyl)-2-methyl-1,3-dioxolan-4-yl)methoxy)phenyl)piperazin-1-yl)phenyl)benzamide]",IC50,[4]; [5],> 10000 nM
C[C@@]1(c2ccc(Cl)cc2Cl)OC[C@@H](COc2ccc(N3CCN(c4ccc(-n5cn[nH]c5=O)cc4)CC3)cc2)O1 [Compound 41],IC50,"[4]; Table 8, ASZ cells, Gli1 mRNA, 48 h incubation, read-out: IC50",140 nM
"C[C@]1(c2ccc(Cl)cc2Cl)OC[C@@H](COc2ccc(N3CCN(c4ccc(NC(=O)c5ccccn5)cc4)CC3)cc2)O1 [Compound 17, N-(4-(4-(4-(((2S,4R)-2-(2,4-dichlorophenyl)-2-methyl-1,3-dioxolan-4-yl)methoxy)phenyl)piperazin-1-yl)phenyl)picolinamide]",IC50,"[4]; Mus musculus, ASZ001, 48 h",3900 ± 300 nM
"C[C@]1(c2ccc(Cl)cc2Cl)OC[C@@H](COc2ccc(N3CCN(c4ccc(NC(=O)c5ccccc5)cc4)CC3)cc2)O1 [Compound 15, N-(4-(4-(4-(((2S,4R)-2-(2,4-dichlorophenyl)-2-methyl-1,3-dioxolan-4-yl)methoxy)phenyl)piperazin-1-yl)phenyl)benzamide]",IC50,[4]; [5],> 10000 nM
"C[C@@]1(c2ccc(Cl)cc2Cl)OC[C@@H](COc2ccc(N3CCN(c4ccc(NC(=O)NN)cc4)CC3)cc2)O1 [Compound 39, N-(4-(4-(4-(((2R,4R)-2-(2,4-dichlorophenyl)-2-methyl-1,3-dioxolan-4-yl)methoxy)phenyl)piperazin-1-yl)phenyl)hydrazinecarboxamide]",IC50,[1]; Table 8,500 ± 400 nM
same,"T1/2 (HLM, min)",[2],20.1 ± 0.6 min
same,Solubility,Solubility,9.3 nM
same,IC50,CYP3A4,> 30 µM
"C[C@@]1(c2ccc(Cl)cc2Cl)OC[C@@H](COc2ccc(N3CCN(c4ccc(NC(=O)c5ccc6ccccc6c5)cc4)CC3)cc2)O1 [Compound 11, N-(4-(4-(4-(((2R,4R)-2-(2,4-dichlorophenyl)-2-methyl-1,3-dioxolan-4-yl)methoxy)phenyl)piperazin-1-yl)phenyl)-2-naphthamide]",IC50,[4]; [5],> 10000 nM
"C[C@]1(c2ccc(Cl)cc2Cl)OC[C@@H](COc2ccc(N3CCN(c4ccc(NC(=O)c5cccc(O)c5)cc4)CC3)cc2)O1 [Compound 30, N-(4-(4-(4-(((2S,4R)-2-(2,4-dichlorophenyl)-2-methyl-1,3-dioxolan-4-yl)methoxy)phenyl)piperazin-1-yl)phenyl)-3-hydroxybenzamide]",IC50,[1]; Table 6,350 ± 60 nM
same,"T1/2 (HLM, min)",[2],did not significantly change
same,PAMPA,[3],Poor
same,Solubility,Solubility,1.6 nM
same,IC50,"CYP3A4; read-out: CYP3A4, Table 9",11.4 µM
"C[C@]1(c2ccc(F)cc2F)C[C@H](COc2ccc(N3CCN(c4ccc(NC(=O)c5cccc(O)c5)cc4)CC3)cc2)CO1 [Compound P25, N-(4-(4-(4-(((3R,5R)-5-(2,4-difluorophenyl)-5-methyltetrahydrofuran-3-yl)methoxy)phenyl)piperazin-1-yl)phenyl)-3-hydroxybenzamide]",IC50,"[4]; Mus musculus, ASZ001, Table P2, ASZ cells, Gli1 mRNA, 48 h incubation, read-out: IC50",190 ± 30 nM
"CC[C@@H](C)n1ncn(-c2ccc(N3CCN(c4ccc(OC[C@@H]5CO[C@@](C)(c6ccc(F)cc6F)C5)cc4)CC3)cc2)c1=O [Compound P1, 2-((R)-sec-butyl)-4-(4-(4-(4-(((3R,5R)-5-(2,4-difluorophenyl)-5-methyltetrahydrofuran-3-yl)methoxy)phenyl)-piperazin-1-yl)phenyl)-2,4-dihydro-3H-1,2,4-triazol-3-one]",times more potent than PSZ,"[4]; ASZ cells, IC50 ratio vs PSZ",2.5 times
same,IC50,"[4]; Mus musculus, ASZ001, Table P1, ASZ cells, Gli1 mRNA, 48 h incubation, read-out: IC50",190 nM
same,IC50,[1]; Table P1,610 ± 120 nM
same,P-gp (Efflux),P-glycoprotein (P-gp); Table P1,No Efflux
same,CYP3A4 IC50 (μM),CYP3A4; Table P1,decreased CYP3A4 inhibition
same,IC50,CYP3A4; human,> 20 µM
"C[C@@]1(c2ccc(Cl)cc2Cl)OC[C@@H](COc2ccc(N3CCN(c4ccc(NC(=O)c5ccccc5O)cc4)CC3)cc2)O1 [Compound 26, N-(4-(4-(4-(((2R,4R)-2-(2,4-dichlorophenyl)-2-methyl-1,3-dioxolan-4-yl)methoxy)phenyl)piperazin-1-yl)phenyl)-2-hydroxybenzamide]",IC50,[4]; [5],> 10000 nM
"C[C@@]1(c2ccc(Cl)cc2Cl)OC[C@@H](COc2ccc(N3CCN(c4ccc(NC(=O)c5ccccn5)cc4)CC3)cc2)O1 [Compound 12, N-(4-(4-(4-(((2R,4R)-2-(2,4-dichlorophenyl)-2-methyl-1,3-dioxolan-4-yl)methoxy)phenyl)piperazin-1-yl)phenyl)picolinamide]",IC50,[4]; [5],> 10000 nM
